Reference: ChEMBL document CHEMBL1201862, “PubChem BioAssay data set” (2004)
The source made the active and inactive calls.

Key:
[1] = target: T1, Type-1 angiotensin II receptor (Homo sapiens, UniProt P30556); test: AT1 receptor antagonists, dose response, selectivity assay for APJ receptor antagonist project, cell-based, uHTS hits (AID 463214); type: functional;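 further: antagonist potency against angiotensin II stimulated AT1 response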
T1 sequence (P30556 whole entry): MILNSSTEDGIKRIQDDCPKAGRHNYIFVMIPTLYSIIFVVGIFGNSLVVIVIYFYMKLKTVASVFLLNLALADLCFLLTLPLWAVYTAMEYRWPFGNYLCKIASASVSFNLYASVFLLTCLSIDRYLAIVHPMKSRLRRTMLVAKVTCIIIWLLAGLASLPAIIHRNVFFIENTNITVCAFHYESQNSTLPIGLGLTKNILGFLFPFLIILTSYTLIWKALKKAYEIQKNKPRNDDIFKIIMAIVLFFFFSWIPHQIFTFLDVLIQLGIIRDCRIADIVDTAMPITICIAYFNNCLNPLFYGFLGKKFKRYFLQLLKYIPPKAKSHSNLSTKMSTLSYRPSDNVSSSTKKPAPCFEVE

[2] = target: Beta-galactosidase (Escherichia coli, UniProt Q8VNN2); test: PubChem AID 485352; type: functional
[3] = target: T2, Sentrin-specific protease 6 (Homo sapiens, UniProt Q9GZR1); type: functional;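 further: Luminescence-based dose-response confirmatory assay of SENP6 inhibition, following up an ultra-high-throughput screen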
T2 sequence (Q9GZR1 whole entry): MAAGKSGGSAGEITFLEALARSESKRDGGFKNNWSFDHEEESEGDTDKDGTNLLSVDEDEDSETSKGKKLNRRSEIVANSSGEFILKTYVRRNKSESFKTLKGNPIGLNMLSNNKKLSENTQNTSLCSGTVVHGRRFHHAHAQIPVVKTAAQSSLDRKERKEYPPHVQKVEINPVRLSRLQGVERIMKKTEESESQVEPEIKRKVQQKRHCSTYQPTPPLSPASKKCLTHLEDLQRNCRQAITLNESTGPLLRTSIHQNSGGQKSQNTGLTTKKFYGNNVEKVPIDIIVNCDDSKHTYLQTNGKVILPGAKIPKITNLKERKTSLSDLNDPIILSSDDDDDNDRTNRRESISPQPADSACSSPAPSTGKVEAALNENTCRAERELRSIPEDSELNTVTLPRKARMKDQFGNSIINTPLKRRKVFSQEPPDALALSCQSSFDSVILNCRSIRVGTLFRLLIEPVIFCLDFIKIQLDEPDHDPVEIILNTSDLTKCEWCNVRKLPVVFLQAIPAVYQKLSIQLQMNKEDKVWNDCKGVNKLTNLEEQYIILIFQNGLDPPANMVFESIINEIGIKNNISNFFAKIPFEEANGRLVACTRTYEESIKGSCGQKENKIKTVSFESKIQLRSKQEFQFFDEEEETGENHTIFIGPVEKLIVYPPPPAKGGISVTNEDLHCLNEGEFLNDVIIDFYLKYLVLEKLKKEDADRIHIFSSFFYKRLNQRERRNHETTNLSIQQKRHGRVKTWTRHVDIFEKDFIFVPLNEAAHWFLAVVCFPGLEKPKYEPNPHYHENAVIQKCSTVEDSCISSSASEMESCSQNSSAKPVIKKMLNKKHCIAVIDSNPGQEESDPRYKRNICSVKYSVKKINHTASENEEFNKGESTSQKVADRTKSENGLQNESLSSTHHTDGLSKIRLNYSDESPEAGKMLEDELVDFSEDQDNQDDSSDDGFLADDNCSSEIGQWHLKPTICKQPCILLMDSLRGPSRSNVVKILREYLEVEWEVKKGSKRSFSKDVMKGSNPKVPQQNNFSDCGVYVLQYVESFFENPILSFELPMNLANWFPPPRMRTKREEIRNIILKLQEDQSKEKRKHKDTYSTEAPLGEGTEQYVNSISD

[4] = LGR2 antagonists, dose response, cell-based, HEK293, CRE-luciferase reporter, cherry pick, set 2 (AID 743343); type: functional;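 further: transfected cells were stimulated with diluted bursicon conditioned medium after compound addition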
[5] = inhibitors of SNCA 5'UTR-driven reporter translation, confirmation, H4 neuroglioma cells, luminescence (AID 1988); type: functional, cell-based
[6] = A549 cell cytotoxicity, dose response, cytotoxicity control, plate reader, cherry-pick, antagonist series (AID 743412); type: functional, cell-based
[7] = Luminescence Cell-Based Dose Response HTS to Identify Inhibitors of 5'UTR Stem-Loop Driven Prion Protein mRNA Translation in H4 Neuroglioblastoma Cells. [Related pubchem assays: 1827 (Project Summary), 1813 (Primary HTS)]; type: functional
[8] = target: T3, Sentrin-specific protease 7 (Homo sapiens, UniProt Q9BQF6); type: functional;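 further: Luminescence-based dose-response confirmation of ultra-high-throughput screening hits, measuring inhibition of SENP7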
T3 sequence (Q9BQF6 whole entry): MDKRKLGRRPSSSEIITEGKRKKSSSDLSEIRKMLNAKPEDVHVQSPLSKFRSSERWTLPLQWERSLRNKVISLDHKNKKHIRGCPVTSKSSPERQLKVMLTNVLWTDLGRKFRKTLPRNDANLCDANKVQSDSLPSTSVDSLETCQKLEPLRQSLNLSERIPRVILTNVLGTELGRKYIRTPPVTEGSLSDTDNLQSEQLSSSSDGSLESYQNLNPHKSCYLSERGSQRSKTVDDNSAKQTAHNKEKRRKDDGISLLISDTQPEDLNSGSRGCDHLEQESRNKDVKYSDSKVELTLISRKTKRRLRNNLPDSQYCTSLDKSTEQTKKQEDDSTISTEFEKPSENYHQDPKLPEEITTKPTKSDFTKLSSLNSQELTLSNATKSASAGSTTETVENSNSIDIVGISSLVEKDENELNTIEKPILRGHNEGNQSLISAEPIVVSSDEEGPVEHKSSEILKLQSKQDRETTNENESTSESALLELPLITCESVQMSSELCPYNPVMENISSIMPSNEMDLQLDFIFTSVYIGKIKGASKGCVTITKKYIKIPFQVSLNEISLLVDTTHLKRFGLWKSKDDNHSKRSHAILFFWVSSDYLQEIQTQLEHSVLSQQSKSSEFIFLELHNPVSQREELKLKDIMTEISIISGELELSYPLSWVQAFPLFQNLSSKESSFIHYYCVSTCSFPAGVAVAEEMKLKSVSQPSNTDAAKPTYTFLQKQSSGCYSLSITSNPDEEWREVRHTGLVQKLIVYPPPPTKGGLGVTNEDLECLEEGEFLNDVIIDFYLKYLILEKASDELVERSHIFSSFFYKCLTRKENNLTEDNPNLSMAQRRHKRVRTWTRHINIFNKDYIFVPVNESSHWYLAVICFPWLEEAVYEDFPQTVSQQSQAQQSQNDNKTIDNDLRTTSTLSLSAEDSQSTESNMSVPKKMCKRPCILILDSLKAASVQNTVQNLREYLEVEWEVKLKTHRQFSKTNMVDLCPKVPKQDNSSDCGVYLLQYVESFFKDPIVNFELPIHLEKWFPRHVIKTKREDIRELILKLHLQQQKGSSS

[9] = target: T4, Caspase-3 (Homo sapiens, UniProt P42574); type: functional;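 further: Dose-response selectivity test against caspase-3 for candidate inhibitors of sentrin-specific proteases (SENPs)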
T4 sequence (P42574 whole entry): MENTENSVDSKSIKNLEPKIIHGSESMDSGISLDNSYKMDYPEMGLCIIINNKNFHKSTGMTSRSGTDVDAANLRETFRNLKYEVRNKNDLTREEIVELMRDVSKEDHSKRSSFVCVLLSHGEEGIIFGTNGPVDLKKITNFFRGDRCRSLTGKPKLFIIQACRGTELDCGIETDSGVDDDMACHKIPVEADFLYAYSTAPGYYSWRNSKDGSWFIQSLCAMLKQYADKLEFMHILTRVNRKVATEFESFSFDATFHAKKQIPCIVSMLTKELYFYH

[10] = tested on: HEK293; test: inhibitors of LMP1-driven NF-kB reporter, dose response, cell-based, HEK293, luciferase, cherry-pick (AID 588343); type: functional; conditions: Homo sapiens
[11] = HepG2 cell cytotoxicity, dose response, cytotoxicity control, plate reader, cherry-pick, antagonist series (AID 743416); type: functional, cell-based
[12] = HEK293 cell cytotoxicity, dose response, cytotoxicity control, plate reader, cherry-picked samples (AID 743446); type: functional, cell-based
[13] = target: T5, Sentrin-specific protease 8 (Homo sapiens, UniProt Q96LD8); type: functional;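 further: luminescence read-out of SENP8 inhibition, dose-response confirmation following an ultra-high-throughput screen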
T5 sequence (Q96LD8 whole entry): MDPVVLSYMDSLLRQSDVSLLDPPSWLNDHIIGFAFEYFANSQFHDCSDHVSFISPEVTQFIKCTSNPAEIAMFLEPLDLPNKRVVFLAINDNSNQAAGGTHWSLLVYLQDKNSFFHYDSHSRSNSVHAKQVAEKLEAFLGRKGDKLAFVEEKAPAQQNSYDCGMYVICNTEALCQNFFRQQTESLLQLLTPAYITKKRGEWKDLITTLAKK

[14] = MC4R antagonists, dose response, counter-screen for LGR2 antagonist project, cell-based, plate reader, cherry pick (AID 743444); type: functional;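 further: transfected HEK 293 cells stimulated with alpha-MSH peptide; potency of inhibitors of the alpha-MSH evoked signal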
[15] = target: T6, CAAX prenyl protease 2 (Homo sapiens, UniProt Q9Y256); test: human Rce1 protease inhibitors, dose response, biochemical, yeast membranes, quenched-peptide fluorescence, cherry-pick (AID 588849)
T6 sequence (Q9Y256 whole entry): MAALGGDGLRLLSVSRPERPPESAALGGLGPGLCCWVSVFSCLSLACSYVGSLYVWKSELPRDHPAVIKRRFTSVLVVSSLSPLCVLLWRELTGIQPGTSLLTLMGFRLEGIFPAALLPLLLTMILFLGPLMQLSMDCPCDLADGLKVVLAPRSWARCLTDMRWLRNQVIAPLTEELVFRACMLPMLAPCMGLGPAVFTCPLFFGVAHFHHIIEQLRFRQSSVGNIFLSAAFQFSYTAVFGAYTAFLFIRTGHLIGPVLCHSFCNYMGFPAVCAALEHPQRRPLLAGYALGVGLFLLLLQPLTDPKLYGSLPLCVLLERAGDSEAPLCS

[16] = target: Trypsin (Sus scrofa, UniProt P00761); test: porcine trypsin inhibitors, dose response, selectivity assay for Rce1 protease inhibitor project, biochemical, quenched peptide fluorescence, cherry-pick (AID 488789)
[17] = target: T7, Heat shock factor protein 1 (Mus musculus, UniProt P38532); test: HSF1 potentiators in luciferase reporter cells, confirmation, cell-based, NIH3T3, luminescence, dose retest (AID 435004); type: functional;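 further: stress induced by proteasome inhibitor MG132 added 30 min after compound; luciferase reporter driven by HSF1 response element in NIH3T3 cells; actives raise luminescence as potentiators of the MG132 stress response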
T7 sequence (P38532 whole entry): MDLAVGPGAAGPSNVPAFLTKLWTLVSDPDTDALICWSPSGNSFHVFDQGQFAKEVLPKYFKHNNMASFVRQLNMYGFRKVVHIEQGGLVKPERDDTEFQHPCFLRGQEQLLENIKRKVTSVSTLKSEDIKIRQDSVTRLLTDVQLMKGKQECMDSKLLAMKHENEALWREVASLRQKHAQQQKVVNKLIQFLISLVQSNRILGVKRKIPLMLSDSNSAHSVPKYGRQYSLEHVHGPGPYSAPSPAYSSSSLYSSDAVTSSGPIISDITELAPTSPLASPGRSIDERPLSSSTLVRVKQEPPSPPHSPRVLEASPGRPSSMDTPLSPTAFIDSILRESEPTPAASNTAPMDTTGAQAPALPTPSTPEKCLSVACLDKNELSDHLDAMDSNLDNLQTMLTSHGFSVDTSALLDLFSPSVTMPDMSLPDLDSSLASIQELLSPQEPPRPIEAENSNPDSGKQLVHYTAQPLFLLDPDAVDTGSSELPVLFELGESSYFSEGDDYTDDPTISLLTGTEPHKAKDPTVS

[18] = tested on: H9c2; test: cells; type: functional, cell-based; conditions: Rattus norvegicus, H9c2, Myocardium;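 further: confirmatory concentration-response retest of ultra-high-throughput screening hits for modulation of myocardial damage; cell death induced by hydrogen peroxide oxidative stress; compound pretreatment for 60 min then peroxide exposure for 2 h; potency is for protecting the cells against peroxide damage rather than for killing them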
[19] = tested on: Streptococcus sp. 'group A'; test: growth inhibition of control SK(-) GAS strain, dose response, counter-screen for streptokinase expression inhibitor project, luminescence, kanamycin, BacTiterGlo, confirmation (AID 1900); type: functional, organism-based; conditions: read-out: EC50
[20] = C. albicans growth with fluconazole, confirmation, fluorescence, retest (AID 2467); type: functional, cell-based
[21] = NIH-3T3 fibroblast cytotoxicity, dose response, cytotoxicity control, cell-based, fluorescence, Alamar Blue, secondary assay (AID 2327); type: functional;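 further: NIH-3T3 mouse fibroblasts cultured with fluconazole at 8 µg/mL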
[22] = tested on: Streptococcus; test: Group A Streptococcus viability loss, dose response, counter-screen for streptokinase expression inhibitor project, luminescence, BacTiterGlo (AID 1915); type: functional, organism-based;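 further: potency for reduction of bacterial viability or growth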
[23] = target: T8, Microphthalmia-associated transcription factor (Homo sapiens, UniProt O75030); test: TRPM1 promoter luciferase signal decrease, dose response, MITF inhibitor project, cell-based, SK-MEL-5, cherry-picked, set 3 (AID 493073); type: functional
T8 sequence (O75030 whole entry): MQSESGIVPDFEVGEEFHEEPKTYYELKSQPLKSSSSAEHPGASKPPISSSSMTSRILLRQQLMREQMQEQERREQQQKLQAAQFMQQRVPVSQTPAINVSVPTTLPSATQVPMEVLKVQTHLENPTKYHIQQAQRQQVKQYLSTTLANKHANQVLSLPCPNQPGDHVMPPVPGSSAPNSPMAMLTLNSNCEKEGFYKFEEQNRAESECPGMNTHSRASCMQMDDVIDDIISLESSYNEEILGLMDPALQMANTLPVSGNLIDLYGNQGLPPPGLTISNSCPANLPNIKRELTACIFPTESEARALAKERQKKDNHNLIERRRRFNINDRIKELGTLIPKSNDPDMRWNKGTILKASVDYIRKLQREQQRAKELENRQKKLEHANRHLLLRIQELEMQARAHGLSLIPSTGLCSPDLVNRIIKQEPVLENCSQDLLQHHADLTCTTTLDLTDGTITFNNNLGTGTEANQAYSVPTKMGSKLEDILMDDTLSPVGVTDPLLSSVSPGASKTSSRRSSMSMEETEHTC

Sequence of Beta-galactosidase (Q8VNN2 whole entry): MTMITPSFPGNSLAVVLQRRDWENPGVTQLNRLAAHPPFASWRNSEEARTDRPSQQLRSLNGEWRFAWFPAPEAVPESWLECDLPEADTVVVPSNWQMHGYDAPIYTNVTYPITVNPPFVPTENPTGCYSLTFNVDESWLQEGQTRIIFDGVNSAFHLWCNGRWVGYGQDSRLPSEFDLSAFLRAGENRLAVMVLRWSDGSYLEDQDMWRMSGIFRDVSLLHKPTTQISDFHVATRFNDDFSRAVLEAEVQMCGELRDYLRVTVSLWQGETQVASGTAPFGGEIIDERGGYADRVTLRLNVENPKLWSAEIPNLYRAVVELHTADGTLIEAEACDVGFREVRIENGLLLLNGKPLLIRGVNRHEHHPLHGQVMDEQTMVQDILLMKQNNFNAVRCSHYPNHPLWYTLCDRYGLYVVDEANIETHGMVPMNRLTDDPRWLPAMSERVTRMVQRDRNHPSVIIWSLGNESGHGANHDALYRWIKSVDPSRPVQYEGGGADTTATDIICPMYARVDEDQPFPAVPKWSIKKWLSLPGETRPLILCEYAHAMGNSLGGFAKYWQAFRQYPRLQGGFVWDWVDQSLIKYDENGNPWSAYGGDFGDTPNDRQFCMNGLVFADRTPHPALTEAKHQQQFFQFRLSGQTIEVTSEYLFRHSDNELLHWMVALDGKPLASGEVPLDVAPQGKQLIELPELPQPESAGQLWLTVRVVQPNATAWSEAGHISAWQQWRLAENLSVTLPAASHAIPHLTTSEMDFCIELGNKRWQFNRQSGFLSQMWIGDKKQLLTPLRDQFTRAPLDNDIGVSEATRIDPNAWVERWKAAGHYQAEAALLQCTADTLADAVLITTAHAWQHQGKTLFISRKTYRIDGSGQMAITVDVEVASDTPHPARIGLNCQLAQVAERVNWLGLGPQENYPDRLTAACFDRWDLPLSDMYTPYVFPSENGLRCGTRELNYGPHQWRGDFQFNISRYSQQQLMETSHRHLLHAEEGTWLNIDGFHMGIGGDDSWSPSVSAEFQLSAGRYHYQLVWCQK
Sequence of Trypsin (P00761 whole entry): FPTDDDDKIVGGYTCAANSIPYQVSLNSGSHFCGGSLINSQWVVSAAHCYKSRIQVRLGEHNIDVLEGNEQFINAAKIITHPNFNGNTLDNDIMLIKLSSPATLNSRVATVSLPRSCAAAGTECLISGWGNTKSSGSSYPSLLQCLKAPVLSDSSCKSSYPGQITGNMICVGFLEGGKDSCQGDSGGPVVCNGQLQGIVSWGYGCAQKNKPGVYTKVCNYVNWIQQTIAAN

O=C(CCC(=O)OCC(=O)c1cccc([N+](=O)[O-])c1)Nc1ccccc1Cl
IC50 [1]: 15 µM (active) | EC50 [2]: > 40 µM (inactive)

Cc1ccc(/C=C/c2nc(O)c3ccccc3n2)cc1
IC50 [3]: 0.961 µM (active) | AC50 [4]: 2.73 µM (active) | EC50 [5]: 4.45 µM (inconclusive) | AC50 [6]: > 52 µM (inactive) | EC50 [7]: 14.8 µM (active) | IC50 [8]: 0.788 µM (active) | IC50 [9]: 0.999 µM (active) | AC50 [10]: 1.88 µM (active) | AC50 [11]: > 52 µM (inactive) | AC50 [12]: > 52 µM (inactive) | IC50 [13]: 1.5 µM (active) | AC50 [14]: 2.45 µM (active)

O=C(COc1ccccc1)OCC(=O)c1ccc(S(=O)(=O)N2CCCCC2)cc1
IC50 [1]: 16.9 µM (active) | EC50 [2]: > 40 µM (inactive)

COc1cc2c(cc1OC)C(CCc1ccccc1)=NCC2
AC50 [15]: 6.03 µM (active) | AC50 [16]: 9.41 µM (active) | EC50 [17]: > 260 µM (inactive)

CCOc1ccccc1C(=O)N[C@H](C(=O)OCc1cc([N+](=O)[O-])cc2c1OCOC2)C(C)C
AC50 [10]: 183 µM (active)

Cc1cc(C)c2ccc(N)nc2c1O
IC50 [18]: > 79 µM (inactive) | EC50 [19]: 3.15 µM (active) | IC50 [1]: 13.7 µM (active) | EC50 [20]: > 38 µM (not active) | EC50 [21]: > 150 µM (inconclusive) | EC50 [22]: 9.09 µM (active) | AC50 [23]: 9.58 µM (active) | EC50 [2]: > 40 µM (inactive)
